Results as given in patent publication US11090319B2, “Therapeutic uses of pharmaceutical compositions comprising cyclic boronic acid ester derivatives” (Melinta Subsidiary Corp., priority 2010, dated 2021).
Like-named read-outs stand apart in the source and are kept apart here.

Columns and labels:
[1] = molecular target: various β-lactamases (bacterial lysates) (Escherichia coli, UniProt A0A5R8T042); experiment: biochemical; format: biochemical; settings: read-out: AZT IC50 KP1009 CTX-M-15
[2] = molecular target: various β-lactamases (bacterial lysates) (Escherichia coli, UniProt A0A649V088); experiment: biochemical; format: biochemical; settings: read-out: AZT IC50 KP1005 CTX-M-14
[3] = molecular target: various β-lactamases (bacterial lysates) (Klebsiella pneumoniae, UniProt Q9F663); experiment: biochemical; format: biochemical
[4] = molecular target: various β-lactamases (bacterial lysates) (Klebsiella pneumoniae, UniProt Q9F663, H272Y); experiment: biochemical; format: biochemical
[5] = molecular target: various β-lactamases (bacterial lysates) (Pseudomonas aeruginosa, UniProt P14489); experiment: biochemical; format: biochemical; settings: AZT IC50 KP1007 OXA-10
[6] = molecular target: various β-lactamases (bacterial lysates) (Salmonella typhimurium, UniProt P0A1V8); experiment: biochemical; format: biochemical; settings: AZT IC50 KPX1001 OXA-2
[7] = molecular target: various β-lactamases (bacterial lysates) (Escherichia coli, UniProt Q53TY8); experiment: Inhibition of nitrocefin cleavage by bacterial lysates, Table 11; format: biochemical; settings: lysate EC1010 pAmpC (CMY-6), read-out: NCF IC50 EC1010 pAmpC (CMY-6)
[8] = tested on: strains expressing class A ESBLs; format: cell-based
Procedure: Selected β-lactamase inhibitors were also tested for their ability to potentiate the monobactam tigemonam.

SME-2, lysate of SM1000 = SME-2, lysate of SM1000 (Serratia marcescens, UniProt P52682); experiment: Inhibition of biapenem hydrolysis by bacterial lysate; settings: read-out: IC50 of inhibition of biapenem hydrolysis; SM1000 SME-2
[9] = molecular target: CTX-M-15, lysate of KP1009 (Escherichia coli, UniProt Q9EXV5); experiment: Inhibition of ceftazidime hydrolysis by bacterial lysate
GES-1, lysate of pa 1063 = GES-1, lysate of pa 1063 (Klebsiella pneumoniae, UniProt Q9KJY7); experiment: as above
SHV-2, lysate of ec306 = SHV-2, lysate of ec306 (Escherichia coli, UniProt P0A9Z7); experiment: as above
SHV-5, lysate of ec308 = SHV-5, lysate of ec308 (Escherichia coli, UniProt P0AD63, E235K/G234S); experiment: as above
OXA-10, lysate of KP1007 = OXA-10, lysate of KP1007 (Pseudomonas aeruginosa, UniProt P14489); experiment: as above
[10] = tested on: ECL1004 Enterobacter cloacae NMC-A; experiment: Checkerboard assay, biapenem potentiation; settings: Biapenem MIC 8-fold; ECL1004 NMC-A class A
[11] = tested on: EC1007 Escherichia coli KPC-3; experiment: Checkerboard assay, biapenem potentiation; settings: Biapenem MIC 8-fold; EC1007 KPC-3 class A
[12] = tested on: SM1000 Serratia marcescens SME-2; experiment: Checkerboard assay, biapenem potentiation; settings: Biapenem MIC 8-fold; SM1000 SME-2 class A
[13] = lysate KP1004 KPC-2, aztreonam cleavage, read-out: AZT IC50 KP1004 KPC-2 (converted)
[14] = lysate KP1008 KPC-2, aztreonam cleavage, read-out: AZT IC50 KP1008 KPC-2

Sequence of various β-lactamases (bacterial lysates) (Escherichia coli, UniProt A0A5R8T042) (A0A5R8T042 29-291): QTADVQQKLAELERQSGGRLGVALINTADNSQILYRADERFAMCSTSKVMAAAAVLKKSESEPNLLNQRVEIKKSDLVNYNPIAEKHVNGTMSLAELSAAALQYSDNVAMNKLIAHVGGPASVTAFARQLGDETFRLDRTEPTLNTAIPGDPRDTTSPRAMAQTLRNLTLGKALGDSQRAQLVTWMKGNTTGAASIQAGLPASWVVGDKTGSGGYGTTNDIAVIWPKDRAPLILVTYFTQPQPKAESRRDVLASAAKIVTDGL
Sequence of CTX-M-15, lysate of KP1009 (Q9EXV5 entry or part of it): as the sequence (A0A5R8T042 29-291) above

| SMILES | IC50 [1] [µM] | IC50 [2] [nM] | IC50 [3, 13] [nM] | IC50 [3, 14] [nM] | IC50 [4] [nM] | IC50 [5] [µM] | IC50 [6] [µM] | IC50 [7] [µM] | other results |
| --- | --- | --- | --- | --- | --- | --- | --- | --- | --- |
| O=C(O)C[C@@H]1CC[C@H](NC(=O)Cn2ccnc2-c2ccccc2)B(O)O1 [Compound 54, 2-((3R,6S)-2-hydroxy-3-(2-(2-phenyl-1H-imidazol-1-yl)acetamido)-1,2-oxaborinan-6-yl)acetic acid] | > 5.6 | < 1400 | < 1400 | < 1400 | < 1400 | > 5.6 | 1.4 to 5.6 | 1.4 to 5.6 |  |
| C[C@]1(Cn2ccnn2)[C@H](C(=O)O)N2C(=O)C[C@H]2S1(=O)=O [Tazobactam, reference compound] |  |  |  |  | 2460 | 14.8 |  |  | IC50 ([3]; AZT IC50 KP1008 KPC-2): 7390 nM; IC50 ([3]; lysate KP1004 KPC-2, aztreonam cleavage, numeric values, read-out: AZT IC50 KP1004 KPC-2 (converted)): 2460 nM; MPC4 CTX-M-14 KP1005 [8]: 10 µg/mL; MPC4 CTX-M-15 KP1009 [8]: 10 µg/mL; MPC4 SHV-5 ec308 [8]: 5 µg/mL; MPC4 SHV-12 KP1010 [8]: 1.25 µg/mL; MPC4 SHV-18 KP1012 [8]: 1.25 µg/mL; MPC4 TEM-10 EC1009 [8]: 2.5 µg/mL; MPC4 TEM-10 ec302 [8]: 5 µg/mL; MPC4 TEM-26 ec304 [8]: 1.25 µg/mL; IC50 (SME-2, lysate of SM1000): 333 to 3330 nM; IC50 [9]: < 333 nM; IC50 (GES-1, lysate of pa 1063): 333 to 3330 nM; IC50 (SHV-2, lysate of ec306): 333 to 3330 nM; IC50 (SHV-5, lysate of ec308): < 333 nM; IC50 (OXA-10, lysate of KP1007): 333 to 3330 nM |
| CO/N=C(\C(=O)N[C@H]1CC[C@@H](CC(=O)O)OB1O)c1csc(N)n1 [Compound 40, 2-((3R,6S)-3-((Z)-2-(2-aminothiazol-4-yl)-2-(methoxyimino)acetamido)-2-hydroxy-1,2-oxaborinan-6-yl)acetic acid] | < 1.4 | < 1400 | 1400 to 5620 | > 5620 | 1400 to 5620 | 1.4 to 5.62 | < 1.4 | 1.4 to 5.62 |  |
| Nc1nc(/C(=N/OCc2cc(=O)c(O)cn2O)C(=O)N[C@H]2CC[C@@H](CC(=O)O)OB2O)cs1 [Compound 62, 2-((3R)-3-((Z)-2-(2-aminothiazol-4-yl)-2-((1,5-dihydroxy-4-oxo-1,4-dihydropyridin-2-yl)methoxyimino)acetamido)-2-hydroxy-1,2-oxaborinan-6-yl)acetic acid] | 1.04 to 4.16 | 1040 to 4160 | 1040 to 4160 | < 1040 | < 1040 | > 4.16 | > 4.16 | > 4.16 |  |
| O=C(O)CC1CC[C@H](NC(=O)Cc2ccccc2)B(O)O1 (stereo partly drawn) [Compound 2, 2-((3R)-2-hydroxy-3-(2-phenylacetamido)-1,2-oxaborinan-6-yl)acetic acid] |  |  |  |  |  |  |  |  | MPC8 [10]: Y (MPC8 of 0.16 μg/mL to 1 μg/mL); MPC8 [11]: X (MPC8 of less than 0.16 μg/mL); MPC8 [12]: Y (MPC8 of 0.16 μg/mL to 1 μg/mL) |
| NC1(CC(=O)N[C@H]2CC[C@@H](CC(=O)O)OB2O)CCCCC1 [Compound 51, 2-((3R,6S)-3-(2-(1-aminocyclohexyl)acetamido)-2-hydroxy-1,2-oxaborinan-6-yl)acetic acid] | > 6.41 | > 6410 | < 1600 | < 1600 | < 1600 | > 6.41 | 1.6 to 6.41 | 1.6 to 6.41 |  |
| CC(C)(O/N=C(\C(=O)N[C@H]1CC[C@@H](CC(=O)O)OB1O)c1csc(N)n1)C(=O)O [Compound 36, 2-((Z)-1-(2-aminothiazol-4-yl)-2-((3R,6S)-6-(carboxymethyl)-2-hydroxy-1,2-oxaborinan-3-ylamino)-2-oxoethylideneaminooxy)-2-methylpropanoic acid] | < 1.17 | < 1170 | 1170 to 4670 | 1170 to 4670 | < 1170 | > 4.67 | > 4.67 | > 4.67 |  |
| Nc1nc(CC(=O)N[C@H]2CC[C@@H](CC(=O)O)OB2O)cs1 [Compound 39, 2-((3R,6S)-3-(2-(2-aminothiazol-4-yl)acetamido)-2-hydroxy-1,2-oxaborinan-6-yl)acetic acid] | 1.6 to 6.39 | 1600 to 6390 | < 1600 | 1600 to 6390 | < 1600 | > 6.39 | 1.6 to 6.39 | > 6.39 |  |
| NCCSCC(=O)N[C@H]1CC[C@@H](CC(=O)O)OB1O [Compound 48, 2-((3R,6S)-3-(2-(2-aminoethylthio)acetamido)-2-hydroxy-1,2-oxaborinan-6-yl)acetic acid] | > 6.89 | 1720 to 6890 | < 1720 | 1720 to 6890 | < 1720 | > 6.89 | 1.72 to 6.89 |  | MPC4 CTX-M-14 KP1005 [8]: Z (key: X: MPC@4 of less than 2 μg/mL; Y: MPC@4 of 2 μg/mL to 10 μg/mL; Z: MPC@4 of greater than 10 μg/mL); MPC4 CTX-M-15 KP1009 [8]: Z (key: X: MPC@4 of less than 2 μg/mL; Y: MPC@4 of 2 μg/mL to 10 μg/mL; Z: MPC@4 of greater than 10 μg/mL); MPC4 SHV-5 ec308 [8]: Z (key: X: MPC@4 of less than 2 μg/mL; Y: MPC@4 of 2 μg/mL to 10 μg/mL; Z: MPC@4 of greater than 10 μg/mL); MPC4 SHV-12 KP1010 [8]: Z (key: X: MPC@4 of less than 2 μg/mL; Y: MPC@4 of 2 μg/mL to 10 μg/mL; Z: MPC@4 of greater than 10 μg/mL); MPC4 SHV-18 KP1012 [8]: Z (key: X: MPC@4 of less than 2 μg/mL; Y: MPC@4 of 2 μg/mL to 10 μg/mL; Z: MPC@4 of greater than 10 μg/mL); MPC4 TEM-10 EC1009 [8]: Z (key: X: MPC@4 of less than 2 μg/mL; Y: MPC@4 of 2 μg/mL to 10 μg/mL; Z: MPC@4 of greater than 10 μg/mL); MPC4 TEM-10 ec302 [8]: Z (key: X: MPC@4 of less than 2 μg/mL; Y: MPC@4 of 2 μg/mL to 10 μg/mL; Z: MPC@4 of greater than 10 μg/mL); MPC4 TEM-26 ec304 [8]: Z (key: X: MPC@4 of less than 2 μg/mL; Y: MPC@4 of 2 μg/mL to 10 μg/mL; Z: MPC@4 of greater than 10 μg/mL) |
